Experimental data published in patent US4265901A, “2-Oxybenzimidazoline compounds” (priority 1979, dated 1981).
Where a name gives a salt, the structure may show the parent alone.

How the values were obtained:
Cotton = test: Pre-emergence herbicide test, cotton; assay type: in vivo
Protocol: (§1) In this evaluation, each compound to be tested was dissolved in a 1:1 mixture of acetone and ethanol containing a small amount of Toximul R and Toximul S (each a sulfonate/nonionic blend produced by Stepan Chemical Company, Northfield, Illinois). The solution was then diluted with deionized water to a composition of the following concentrations, by weight: Plant species used as indicators of herbicidal activity were planted in galvanized pans (flats) 31.5 cm. long, 21.5 cm. wide, and 8.0 cm. deep. The bottoms of the flats had holes to facilitate drainage. The soil used was a 1:1 ratio by volume of masonry sand and shredded top soil. Flats that were to receive preemergence treatments were planted one day prior to, or on the same day treatments were applied. Flats that were to receive postemergence treatments were planted 9 days prior to treatment and placed in a growth chamber until the day of treatment. In the growth chamber, flats received 12 to 18 hours of light per day and were subject to temperatures of 75° to 85° F. The formulated test compound was applied uniformly to the indicator species with a modified DeVilbiss atomizer using air pressure of 3 to 5 psi. Each flat received 12.5 ml. of spray solution which was equal to 200 gallons/acre total spray volume. Plants were maintained in a greenhouse after treatment. Herbicidal effects of chemicals were evaluated by two injury rating systems 18 days after preemergence applications and 14 days after postemergence applications. The degree of plant injury was based on a 1 to 5 scale and a single numerical rating was assigned to each test species as follows: […]

Cucumber = test: Pre-emergence herbicide test, cucumber; assay type: in vivo
Protocol: as §1

Barnyard Grass = test: Pre-emergence herbicide test, barnyard grass; assay type: in vivo
Protocol: as §1

housefly = test: House fly contact test; for all read-outs here: ranges in brackets are in %; assay type: in vivo, Musca domestica; conditions: 1000 ppm; for Housefly Kd. (knockdown rating): 2 hours; for Housefly Cont. (mortality rating): 24 hours
Protocol: In this evaluation, each compound to be tested was dissolved in a 1:1 mixture of acetone and ethanol containing a small amount of Toximul R and Toximul S (each a sulfonate/nonionic blend produced by Stephan Chemical Company, Northfield, Ill.). The solution was then diluted with distilled water to a concentration of 1000 ppm of test compound. Lesser concentration formulations were made by diluting a portion of the 1000 ppm solution with distilled water containing 225 mg. of Toximul R and 125 mg. of Toximul S per liter.
This test was conducted with 4-day-old adults of Musca domestica (Linne), Order Diptera, Family Muscidae.
Rearing cages of 4-day-old adult house flies were placed in a cold room and held for one hour at 35° to 40° F. to chill so that the flies could be transferred to test cages. Approximately 100 flies were transferred to each test cage using a small scoop. The stainless steel test cages were five inches in diameter and one and three-fourths inches deep with a stainless steel screen bottom and screened removable friction fitting lid. The small hole on the side of the cage was kept stoppered except when a wick was inserted for feeding and watering.
Each cage was sprayed with 5 ml. of the test formulation containing 1000 ppm. of the test compound, using a DeVilbiss atomizer supplied with 5 psi air pressure. The nozzle was 33 inches from the top of the cage. After spraying, cages were allowed to dry.
Knockdown counts were made two hours after spraying and then the flies were fed and watered by inserting a four-inch wick of Fibre Flex Supreme, unbleached (16/32"), (manufactured by Sackner Products, Inc., Grand Rapids, Mich.) in the hole on the side of the cage. The cage was placed so that the wick hung down into a pan of five percent sugar solution in water.
One replicate was run for each test compound. One unsprayed cage was held as a control, one cage was sprayed as a negative control, and one cage was sprayed with a formulation containing 50 ppm. (0.005%) DDT as a reference standard.
Mortality counts were made 24 hours after spraying. The cage was rapped lightly. […] Moribund flies were counted as dead.

blowfly larvae = test: Efficacy against blowfly larvae, calves intravenous injection (Example 17); assay type: in vivo, Phormia regina; conditions: daily i.v. 0.5 to 1.5 mg/kg escalating, day per line
Protocol: Representative compounds of the present invention were evaluated against larvae of blowfly (Phormia regina) and against adult housefly (Musca domestica). In these evaluations, the candidate compound was administered to each of two male guinea pigs weighing from about 400 grams to about 1000 grams. Administration was via the intraperitoneal route, the compound having been formulated in sesame oil. At twenty-four hours following administration of the compound, blood was withdrawn from the guinea pigs. The serum portion was isolated and blowfly larvae and adult houseflies were fed on the serum. For the blowfly assay, 10 ml. of serum were placed in a test tube with a wick onto which 50 blowfly larvae were placed. The covered test tube was incubated at 27° C. for 24 hours, at which time efficacy of the candidate compound was determined as the percent mortality of the blowfly larvae, adjusted by normal mortality in a control, and reported according to the following rating scale:
A group of three calves each weighing about 220 kilograms was employed. […]
On each day of the evaluation, immediately preceding that day's injection, a sample of blood was withdrawn from each calf. The concentration of the compound in the blood was determined; and the efficacy of the compound against adult housefly and blowfly larvae was assayed by the method described in Example 15. […]

adult housefly = test: Efficacy against adult housefly, calves subcutaneous pellets (Example 20); assay type: in vivo, Musca domestica; conditions: calf 651, subcutaneous pellets about 5 mg./kg.; test day per line
Protocol: For the adult housefly test, 10 ml. of serum were employed to saturate a wick which was placed in a petri dish. Twenty-five chilled houseflies were placed in the dish which was then incubated for 24 hours at 27° C. and 50% relative humidity. After the end of the twenty-four hours, the efficacy of the candidate compound was determined as the percent mortality of housefly, adjusted as for blowfly by normal mortality in a control and reported according to the same scale as above.
The compound of Example 2, 2-hydroxy-2-(1,1,2,2-tetrafluoroethyl)-4-nitro-6-(trifluoromethyl)benzimidazoline sodium salt, was formulated neat into tablets, each containing about 85 mg. of compound.
These pellets were implanted in the right shoulder area of two calves, weighing 400 and 373 kilograms respectively, to supply a dose of about 5 mg./kg. (animals #651 and 1511, respectively). Another calf (animal #656) was maintained as a control and two additional calves weighing 336 and 350 kilograms (animals #654 and 655, respectively) received pellets of 2-(1,1,2,2-tetrafluoroethyl)-4-nitro-6-(trifluoromethyl)benzimidazole, to supply a dose of about 5 mg./kg. of compound.
As described in preceding examples, blood samples were withdrawn and analyzed for the concentration of the compound in the blood and percent efficacy against adult housefly and blowfly larvae.

Compound | plant injury rating (Cotton; 1/2 lb/A) | plant injury rating (Cotton; 1/4 lb/A) | plant injury rating (Cotton; 2 lb/A) | plant injury rating (Cotton; 4 lb/A) [B] | plant injury rating (Cucumber; 1/2 lb/A) | plant injury rating (Cucumber; 1/4 lb/A) | plant injury rating (Cucumber; 1 lb/A) | plant injury rating (Cucumber; 2 lb/A) | plant injury rating (Cucumber; 4 lb/A) [BS] | plant injury rating (Barnyard Grass; 1/2 lb/A) | plant injury rating (Barnyard Grass; 1/4 lb/A) | plant injury rating (Barnyard Grass; 2 lb/A) | plant injury rating (Barnyard Grass; 4 lb/A) [BS] | Housefly Kd. (knockdown rating) (housefly) | Housefly Cont. (mortality rating) (housefly) | % Efficacy, Blowfly Larvae (blowfly larvae; calf 986) [%] | % Efficacy, Blowfly Larvae (blowfly larvae; calf 991) [%] | % Efficacy, Adult Housefly (adult housefly) [%] | plant injury rating (Cotton; 1 lb/A) | plant injury rating (Barnyard Grass; 1 lb/A)
O=[N+]([O-])c1cc(C(F)(F)F)cc2c1NC(O)(C(F)(F)C(F)F)N2 (centres unmarked) [Example 2, 2-Hydroxy-2-(1,1,2,2-Tetrafluoroethyl)-4-Nitro-6-(Trifluoromethyl)Benzimidazoline, Sodium Salt, and Hydrate] | 1 (no injury) | 1 (no injury) | 1 (no injury) | 2 | 1 (no injury) | 1 (no injury) | 1 (no injury) | 1 (no injury) | 4 | 1 (no injury) | 1 (no injury) | 1 (no injury) | 2 | 1 (1-50) | 3 (100) | 100 | 100 | 100 | – | –
O=[N+]([O-])c1cc(C(F)(F)F)cc2c1NC(O)(C(F)(F)C(F)F)N2O (centres unmarked) [Example 12, 1,2-Dihydroxy-2-(1,1,2,2-Tetrafluoroethyl)-4-Nitro-6-(Trifluoromethyl)Benzimidazoline] | 1 (no injury) | – | 1 (no injury) | – | 1 (no injury) | – | 1 (no injury) | 1 (no injury) | – | 1 (no injury) | – | 1 (no injury) | – | 0 (0) | 2 (51-99) | – | – | – | 1 (no injury) | 1 (no injury)
